# Results: BindingDB's records for doi:10.1007/bf02245606 (Janssen Research Foundation, 1996)
# Tests used:
# [1] = molecular target: T1, Alpha-2C adrenergic receptor (Rattus norvegicus, UniProt P22086)
# T1 sequence (P22086 whole entry): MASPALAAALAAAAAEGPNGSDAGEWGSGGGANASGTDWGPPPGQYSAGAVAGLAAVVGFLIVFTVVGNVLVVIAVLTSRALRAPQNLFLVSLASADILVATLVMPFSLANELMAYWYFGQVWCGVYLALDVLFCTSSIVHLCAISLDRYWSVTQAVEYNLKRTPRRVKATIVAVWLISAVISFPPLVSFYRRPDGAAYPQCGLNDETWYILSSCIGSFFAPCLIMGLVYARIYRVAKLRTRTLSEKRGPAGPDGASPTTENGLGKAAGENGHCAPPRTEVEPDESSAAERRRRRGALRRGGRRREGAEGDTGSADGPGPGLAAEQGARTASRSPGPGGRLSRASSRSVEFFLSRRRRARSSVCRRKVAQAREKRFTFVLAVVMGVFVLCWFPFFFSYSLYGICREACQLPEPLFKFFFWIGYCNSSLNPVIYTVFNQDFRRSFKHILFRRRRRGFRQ
# [2] = molecular target: T2, 5-hydroxytryptamine receptor 1A (Rattus norvegicus, UniProt P19327)
# T2 sequence (P19327 whole entry): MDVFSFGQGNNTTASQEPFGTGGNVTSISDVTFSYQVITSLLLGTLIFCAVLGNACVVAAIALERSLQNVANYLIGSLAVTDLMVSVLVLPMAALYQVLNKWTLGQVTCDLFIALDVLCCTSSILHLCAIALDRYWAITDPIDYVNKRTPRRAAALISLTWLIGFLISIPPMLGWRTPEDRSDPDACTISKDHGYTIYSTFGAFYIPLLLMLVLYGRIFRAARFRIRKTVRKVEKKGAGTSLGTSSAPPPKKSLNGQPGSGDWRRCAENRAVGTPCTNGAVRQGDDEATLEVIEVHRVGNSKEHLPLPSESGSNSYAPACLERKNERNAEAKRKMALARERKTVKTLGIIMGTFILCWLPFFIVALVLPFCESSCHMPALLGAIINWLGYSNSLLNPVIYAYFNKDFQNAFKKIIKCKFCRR
Ki [1] [µM],SMILES,Ki [2] [µM]
0.017,Cc1nc2n(c(=O)c1CCN1CCC(c3noc4cc(F)ccc34)CC1)CCCC2O (stereo not drawn) [9-OH-risperidone],0.38
0.68,NC(=O)C1(N2CCCCC2)CCN(CCCC(=O)c2ccc(F)cc2)CC1 [CAS_1893-33-0],
0.0037,CN1CC2c3ccccc3Oc3ccc(Cl)cc3C2C1 (stereo not drawn) [NSC_163091],

# The next lines start with the molecule.
SMILES,Ki [1] [µM],Ki [2] [µM]
O=C1NCN(c2ccccc2)C12CCN(CCCC(c1ccc(F)cc1)c1ccc(F)cc1)CC2,5,0.11
O=C1NCCN1CCN1CCC(c2cn(-c3ccc(F)cc3)c3ccc(Cl)cc23)CC1 [1-[2-[4-[5-chloro-1-(4-fluorophenyl)-indol-3-yl]-1-piperidyl]ethyl]imidazolidin-2-one],1.68,
"O=C1NCN(c2ccccc2)C12CCN(CC1COc3ccccc3O1)CC2 (stereo not drawn) [8-(2,3-Dihydro-benzo[1,4]dioxin-2-ylmethyl)-1-phenyl-1,3,8-triaza-spiro[4.5]decan-4-one]",,0.00084
